Results on eight cell lines are retold here after the supplement of paper PMC10307832.

What all share (assay): relative viability (nuclei count vs DMSO), 5 days (fraction); higher = more cells survive
Compound in assay [1]: CN[C@@H]1C[C@H]2O[C@@](C)([C@@H]1OC)n1c3ccccc3c3c4c(c5c6ccccc6n2c5c31)C(=O)NC4 [Staurosporine] + C[C@@H](Oc1cc(-c2cnn(C3CCNCC3)c2)cnc1N)c1c(Cl)ccc(F)c1Cl [Crizotinib] (partner 1 µM)
The method in brief: (§1)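 Relative viability equals treated-well nuclei counts divided by vehicle-well nuclei counts. Counts came from 4× images of lung cancer cell lines grown in 1536-well plates for 5 days after pin-tool dosing on the day after seeding. Dosing used one drug alone or a fixed anchor-drug dose plus five library-drug doses (not always all listed) in √10 steps, and values are medians of duplicate plates.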

Compound in assay [2]: O=c1[nH]cc(F)c(=O)[nH]1 [5-Fluorouracil] + CCNC(=O)c1noc(-c2cc(C(C)C)c(O)cc2O)c1-c1ccc(CN2CCOCC2)cc1 [Luminespib] (partner 0.01 µM)
A digest of the protocol: as §1

Compound in assay [3]: O=c1[nH]cc(F)c(=O)[nH]1 [5-Fluorouracil] + C[C@@H](Oc1cc(-c2cnn(C3CCNCC3)c2)cnc1N)c1c(Cl)ccc(F)c1Cl [Crizotinib] (partner 1 µM)
The method in brief:
as §1

Compound in assay [4]: O=c1[nH]cc(F)c(=O)[nH]1 [5-Fluorouracil] + Nc1nc2[nH]cc(CCc3ccc(C(=O)N[C@@H](CCC(=O)O)C(=O)O)cc3)c2c(=O)[nH]1 [Pemetrexed] (partner 0.2 µM)
A digest of the protocol:
as §1

With NCI-H1993, the relative viability in assay [1] (first compound 0.005 µM) was 0.861; in assay [1] (first compound 0.01581 µM), 0.78; in assay [1] (first compound 0.05 µM), 0.527; in assay [1] (first compound 0.1581 µM), 0.487; in assay [1] (first compound 0.5 µM) it was 0.298; in assay [2] (first compound 0.02 µM) it was 0.768. The relative viability in assay [2] (first compound 0.2 µM) was found to be 0.682; in assay [2] (first compound 0.6325 µM), 0.664; in assay [2] (first compound 2 µM) it was 0.595; in assay [3] (first compound 0.02 µM), 0.773; in assay [3] (first compound 0.2 µM) it was 0.839; in assay [3] (first compound 0.6325 µM), 0.645. Also, the relative viability is 0.622 in assay [3] (first compound 2 µM); 0.559 in assay [4] (first compound 0.02 µM); 0.49 in assay [4] (first compound 0.2 µM); 0.577 in assay [4] (first compound 0.6325 µM); 0.525 in assay [4] (first compound 2 µM).

Turning to NCI-H2009, the relative viability was 0.255 in assay [1] (first compound 0.005 µM); 0.22 in assay [1] (first compound 0.01581 µM); 0.174 in assay [1] (first compound 0.05 µM); 0.123 in assay [1] (first compound 0.1581 µM); 0.0888 in assay [1] (first compound 0.5 µM); 1.18 in assay [2] (first compound 0.02 µM). The relative viability in assay [2] (first compound 0.2 µM) was 1.12; in assay [2] (first compound 0.6325 µM) it was 1.12; in assay [2] (first compound 2 µM), 0.645; in assay [3] (first compound 0.02 µM), 1.12; in assay [3] (first compound 0.2 µM) it was 0.989; in assay [3] (first compound 0.6325 µM), 0.765. Moreover, the relative viability in assay [3] (first compound 2 µM) amounted to 0.646; in assay [4] (first compound 0.02 µM) it was 1.15; in assay [4] (first compound 0.2 µM), 0.968; in assay [4] (first compound 0.6325 µM), 0.85; in assay [4] (first compound 2 µM) it was 0.656.

Take NCI-H2023: the relative viability in assay [1] (first compound 0.005 µM) amounted to 0.262; in assay [1] (first compound 0.01581 µM), 0.288; in assay [1] (first compound 0.05 µM), 0.132; in assay [1] (first compound 0.1581 µM), 0.0749; in assay [1] (first compound 0.5 µM), 0.0599; in assay [2] (first compound 0.02 µM) it was 0.844. In addition, the relative viability in assay [2] (first compound 0.2 µM) was 0.154; in assay [2] (first compound 0.6325 µM), 0.106; in assay [2] (first compound 2 µM), 0.0768; in assay [3] (first compound 0.02 µM) it was 0.621; in assay [3] (first compound 0.2 µM) it was 0.189; in assay [3] (first compound 0.6325 µM) it was 0.105. Besides, the relative viability is 0.106 in assay [3] (first compound 2 µM); 0.212 in assay [4] (first compound 0.02 µM); 0.129 in assay [4] (first compound 0.2 µM); 0.126 in assay [4] (first compound 0.6325 µM); 0.115 in assay [4] (first compound 2 µM).

In the case of NCI-H2085, the relative viability is 0.65 in assay [1] (first compound 0.005 µM); 0.516 in assay [1] (first compound 0.01581 µM); 0.465 in assay [1] (first compound 0.05 µM); 0.264 in assay [1] (first compound 0.1581 µM); 0.237 in assay [1] (first compound 0.5 µM); 0.418 in assay [2] (first compound 0.02 µM). Also, the relative viability in assay [2] (first compound 0.2 µM) worked out at 0.456; in assay [2] (first compound 0.6325 µM), 0.445; in assay [2] (first compound 2 µM), 0.349; in assay [3] (first compound 0.02 µM), 0.962; in assay [3] (first compound 0.2 µM) it was 1.01; in assay [3] (first compound 0.6325 µM), 0.756. In addition, the relative viability in assay [3] (first compound 2 µM) was 0.636; in assay [4] (first compound 0.02 µM), 0.886; in assay [4] (first compound 0.2 µM), 0.893; in assay [4] (first compound 0.6325 µM), 0.857; in assay [4] (first compound 2 µM), 0.599.

Regarding NCI-H2087, the relative viability in assay [1] (first compound 0.005 µM) was determined as 0.767; in assay [1] (first compound 0.01581 µM), 0.392; in assay [1] (first compound 0.05 µM), 0.344; in assay [1] (first compound 0.1581 µM), 0.137; in assay [1] (first compound 0.5 µM) it was 0.12; in assay [2] (first compound 0.02 µM), 0.168. Besides, the relative viability in assay [2] (first compound 0.2 µM) stood at 0.162; in assay [2] (first compound 0.6325 µM), 0.16; in assay [2] (first compound 2 µM) it was 0.142; in assay [3] (first compound 0.02 µM) it was 0.921; in assay [3] (first compound 0.2 µM), 0.817; in assay [3] (first compound 0.6325 µM), 0.541. The relative viability in assay [3] (first compound 2 µM) came to 0.509; in assay [4] (first compound 0.02 µM), 0.624; in assay [4] (first compound 0.2 µM), 0.593; in assay [4] (first compound 0.6325 µM), 0.609; in assay [4] (first compound 2 µM), 0.588.

In the case of NCI-H2126, the relative viability in assay [1] (first compound 0.005 µM) was 0.994; in assay [1] (first compound 0.01581 µM) it was 0.8; in assay [1] (first compound 0.05 µM), 0.635; in assay [1] (first compound 0.1581 µM), 0.486; in assay [1] (first compound 0.5 µM), 0.407; in assay [2] (first compound 0.02 µM), 0.788. The relative viability in assay [2] (first compound 0.2 µM) came to 0.371; in assay [2] (first compound 0.6325 µM), 0.302; in assay [2] (first compound 2 µM), 0.292; in assay [3] (first compound 0.02 µM), 0.962; in assay [3] (first compound 0.2 µM) it was 0.528; in assay [3] (first compound 0.6325 µM) it was 0.341. In addition, the relative viability is 0.307 in assay [3] (first compound 2 µM); 0.647 in assay [4] (first compound 0.02 µM); 0.435 in assay [4] (first compound 0.2 µM); 0.38 in assay [4] (first compound 0.6325 µM); 0.304 in assay [4] (first compound 2 µM).

As for NCI-H2170, the relative viability in assay [1] (first compound 0.005 µM) was 1.43; in assay [1] (first compound 0.01581 µM), 0.754; in assay [1] (first compound 0.05 µM) it was 0.92; in assay [1] (first compound 0.1581 µM), 0.195; in assay [1] (first compound 0.5 µM), 0.311; in assay [2] (first compound 0.02 µM) it was 0.507. Moreover, the relative viability in assay [2] (first compound 0.2 µM) worked out at 0.541; in assay [2] (first compound 0.6325 µM) it was 0.503; in assay [2] (first compound 2 µM), 0.3; in assay [3] (first compound 0.02 µM) it was 1.28; in assay [3] (first compound 0.2 µM) it was 1.1; in assay [3] (first compound 0.6325 µM), 0.608. For the same cell line, the relative viability stood at 0.468 in assay [3] (first compound 2 µM); 0.363 in assay [4] (first compound 0.02 µM); 0.266 in assay [4] (first compound 0.2 µM); 0.242 in assay [4] (first compound 0.6325 µM); 0.255 in assay [4] (first compound 2 µM).

As for NCI-H2228, the relative viability in assay [1] (first compound 0.005 µM) worked out at 0.292; in assay [1] (first compound 0.01581 µM), 0.234; in assay [1] (first compound 0.05 µM) it was 0.177; in assay [1] (first compound 0.1581 µM), 0.169; in assay [1] (first compound 0.5 µM), 0.132; in assay [2] (first compound 0.02 µM), 0.158. For the same cell line, the relative viability in assay [2] (first compound 0.2 µM) was 0.156; in assay [2] (first compound 0.6325 µM) it was 0.145; in assay [2] (first compound 2 µM), 0.18; in assay [3] (first compound 0.02 µM) it was 0.441; in assay [3] (first compound 0.2 µM) it was 0.483; in assay [3] (first compound 0.6325 µM), 0.457. The relative viability was found to be 0.343 in assay [3] (first compound 2 µM); 0.3 in assay [4] (first compound 0.02 µM); 0.334 in assay [4] (first compound 0.2 µM); 0.39 in assay [4] (first compound 0.6325 µM); 0.367 in assay [4] (first compound 2 µM).
